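Test compounds were applied to cells in 96-well plates for 48 hours at 5 doses. GI50 marks 50% less growth.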 Calls of active or inactive are those of the source. Cut-off read from the data, not from the text of the source: active = GI50 up to about 1.1 µM and inactive = higher.
Columns and labels:
Test in all cases: NCI-60 cell line screen, 48 h
[1] = system: 786-0
[2] = system: A498
[3] = system: A549
[4] = system: ACHN
[5] = system: CAKI-1
[6] = system: CCRF-CEM
[7] = system: COLO 205
[8] = system: DLD-1
[9] = system: DMS-114
[10] = system: DMS-273
[11] = system: EKVX
[12] = system: HCC 2998
[13] = system: HCT-116
[14] = system: HCT-15
[15] = system: HL-60
[16] = system: HOP-62
[17] = system: HT-29
[18] = system: IGROV-1
[19] = system: K562
[20] = system: KM-20L2
[21] = system: KM12
[22] = system: LOX IMVI
[23] = system: LXFL 529
[24] = system: M14
[25] = system: M19-MEL
[26] = system: MOLT-4
[27] = system: Malme-3M
[28] = system: NCI-H226
[29] = system: NCI-H23
[30] = system: NCI-H460
[31] = system: NCI-H522
[32] = system: OVCAR-3
[33] = system: OVCAR-4
[34] = system: OVCAR-8
[35] = system: RPMI-8226
[36] = system: RXF 393
[37] = system: RXF 631
[38] = system: SF-268
[39] = system: SF-295
[40] = system: SF-539
[41] = system: SK-MEL-2
[42] = system: SK-MEL-5
[43] = system: SN12C
[44] = system: SNB-19
[45] = system: SNB-75
[46] = system: SR
[47] = system: SW-620
[48] = system: TK-10
[49] = system: U-251
[50] = system: UACC-257
[51] = system: UACC-62
[52] = system: UO-31
[53] = system: HOP-92
[54] = system: OVCAR-5
[55] = system: SK-MEL-28
[56] = system: SK-OV-3
[57] = system: HOP-18
[58] = system: SNB-78

Measured: GI50

CS(=O)(=O)NNS(=O)(=O)c1ccc(F)cc1
inactive: [1] > 100 µM | [2] > 100 µM | [3] > 100 µM | [4] > 100 µM | [5] > 100 µM | [6] > 100 µM | [7] > 100 µM | [8] > 100 µM | [9] > 100 µM | [10] > 100 µM | [11] > 100 µM | [12] > 100 µM | [13] > 100 µM | [15] > 100 µM | [16] > 100 µM | [17] > 100 µM | [18] > 100 µM | [19] > 100 µM | [20] > 100 µM | [21] > 100 µM | [22] > 100 µM | [23] > 100 µM | [24] > 100 µM | [25] > 100 µM | [26] > 100 µM | [27] > 100 µM | [28] > 100 µM | [29] > 100 µM | [30] > 100 µM | [31] > 100 µM | [32] > 100 µM | [33] > 100 µM | [34] > 100 µM | [35] > 100 µM | [36] > 100 µM | [37] > 100 µM | [38] > 100 µM | [39] > 100 µM | [40] > 100 µM | [41] > 100 µM | [42] > 100 µM | [43] > 100 µM | [44] > 100 µM | [45] > 100 µM | [46] > 100 µM | [47] > 100 µM | [48] > 100 µM | [49] > 100 µM | [50] > 100 µM | [51] > 100 µM | [52] > 100 µM
> 100 µM: [14]

CC(=O)C(CN(CC(C)C)CC(C)C)C(c1ccccc1)c1c(O)c2ccccc2oc1=O (configuration not stated)
inactive: [1] > 100 µM | [2] > 100 µM | [3] > 100 µM | [4] > 100 µM | [5] > 100 µM | [6] > 10 µM | [7] > 100 µM | [8] > 100 µM | [9] > 100 µM | [11] > 100 µM | [12] > 100 µM | [13] > 100 µM | [15] > 100 µM | [16] > 100 µM | [53] > 100 µM | [17] > 100 µM | [18] > 100 µM | [19] > 10 µM | [20] > 100 µM | [22] > 100 µM | [23] > 100 µM | [24] > 100 µM | [25] > 100 µM | [26] > 100 µM | [27] > 100 µM | [28] > 100 µM | [29] > 100 µM | [31] > 100 µM | [32] > 100 µM | [33] > 100 µM | [54] > 100 µM | [34] > 100 µM | [35] > 100 µM | [36] > 100 µM | [37] > 100 µM | [38] > 100 µM | [39] > 100 µM | [40] > 100 µM | [55] > 100 µM | [41] > 100 µM | [56] > 100 µM | [43] > 100 µM | [44] > 100 µM | [45] > 100 µM | [47] > 100 µM | [48] > 100 µM | [50] > 100 µM | [51] > 100 µM
> 100 µM: [14]

CC[P+]1(c2ccccc2)CCCCC1
inactive: [1] > 100 µM | [3] > 100 µM | [4] > 100 µM | [5] > 100 µM | [6] > 100 µM | [7] > 100 µM | [8] > 100 µM | [9] > 100 µM | [10] > 100 µM | [11] > 100 µM | [12] > 100 µM | [13] > 100 µM | [15] > 100 µM | [57] > 100 µM | [16] > 100 µM | [53] > 100 µM | [17] > 100 µM | [18] > 100 µM | [19] > 100 µM | [20] > 100 µM | [21] > 100 µM | [22] > 100 µM | [23] > 100 µM | [24] > 100 µM | [25] > 100 µM | [26] > 100 µM | [27] > 100 µM | [28] > 100 µM | [29] > 100 µM | [30] > 100 µM | [32] > 100 µM | [33] > 100 µM | [54] > 100 µM | [34] > 100 µM | [35] > 100 µM | [36] > 100 µM | [37] > 100 µM | [38] > 100 µM | [39] > 100 µM | [40] > 100 µM | [55] > 100 µM | [41] > 100 µM | [42] > 100 µM | [56] > 100 µM | [43] > 100 µM | [44] > 100 µM | [45] > 100 µM | [58] > 100 µM | [46] > 100 µM | [47] > 100 µM | [48] > 100 µM | [49] > 100 µM | [50] > 100 µM | [51] > 100 µM | [52] > 100 µM
> 100 µM: [14]
